Source: patent publication US20220235343A1, “NOVEL ADP-RIBOSYL CYCLASE AND INHIBITOR THEREOF” (INDUSTRIAL COOPERATION FOUNDATION CHONBUK NATIONAL …, priority 2019, published 2022)

Assays:
Format in all cases: in vivo
[1] = system: diabetic renal disease mouse model (STZ, C57BL/6J mice); experiment: Blood glucose, kidney-to-body weight ratio, creatinine clearance rate and urine albumin level in STZ renal disease mouse model; details: STZ+DCQA group vs STZ, DCQA 9 μg/mL 100 μL intraperitoneally every day for 6 weeks
Description: The blood glucose, kidney-to-body weight ratio, creatinine clearance rate and urine albumin level in a renal disease mouse model were measured by the method reported by Kim S Y et al. [Kim S Y, Park K H, Gul R, Jang K Y, Kim U H. Am. J. Physiol. Renal Physiol. 296: F291-F297, 2009]
(§1) Specifically, 0.2 mL of 50 mM citrate buffer (pH 4.8) (control group and DCQA group) or 200 μL of 5 mg/mL streptozotocin (STZ, Sigma-Aldrich (USA)) dissolved in 50 mM citrate buffer (STZ group and STZ+DCQA group) was intraperitoneally injected to C57BL/6J mice. Blood glucose was measured from day 2 after the STZ injection and the mice whose blood glucose level was 300 mg/dL were divided into an STZ group and an STZ+DCQA group. […] On the last day, the mouse was put in a metabolic cage and urine was collected for 24 hours.
Then, the body weight and blood glucose of the mouse were measured (FIG. 6A). In addition, in order to investigate the possibility as a therapeutic agent for a renal disease, the mouse was sacrificed and serum and kidney were taken. After measuring kidney-to-body weight ratio (FIG. 6B), some of the kidney was fixed in 10% formalin for fluorescent staining and H&E staining, and the remainder was subjected to ADPR cyclase activity and cADPR concentration measurement. Creatinine clearance rate was calculated by measuring the creatinine levels in urine and serum using a creatinine assay kit (Bioassay Systems, USA) (FIG. 6C), and urine albumin level was measured using an albumin assay kit (Bioassay Systems, USA) (FIG. 6D).

[2] = system: ADPRC activity and cADPR concentration in kidney tissue; experiment: ADPRC activity and cADPR concentration in kidney tissue of renal disease mouse model; details: STZ mice, DCQA i.p. every day for 6 weeks
Description: The ADPRC activity and cADPR concentration in the kidney tissue of a renal disease mouse model were measured by the method reported by Kim S Y et al. [Kim S Y, Park K H, Gul R, Jang K Y, Kim U H. Am. J. Physiol. Renal Physiol. 296: F291-F297, 2009]
as §1, with “In order to investigate” for “On”, “possibility as a therapeutic agent for a renal disease,” for “last day,”, “sacrificed” for “put in a metabolic cage”, “serum and kidney were taken.” for “urine was collected for 24 hours.”
After lysing some of the kidney tissue with a lysis buffer, 45 μL of the lysed sample was treated with 5 μL of 2 mM NGD (nicotinamide guanine dinucleotide) and reacted at 37° C. for 1 hour. Then, the enzyme-substrate reaction was stopped by treating with 50 μL of 10% trichloroacetic acid. After centrifuging for 10 minutes and adding 80 μL of the supernatant to 720 μL of a 0.1 M sodium phosphate buffer, absorbance was measured at 297 nm (excitation) and 410 nm (emission) with a fluorescence spectrometer (Hitachi, Japan). […]

[3] = system: hypertension mouse model (L-NAME, C57BL/6J mouse); experiment: Blood pressure and creatinine clearance rate in L-NAME hypertension mouse model; details: DCQA 9 μg/mL 100 μL intraperitoneally every day for 7 days
Description: The blood pressure and creatinine clearance rate in a hypertension mouse model were measured by the method reported by Allagnat et al. [Allagnat F, Haefliger J A, Lambelet M, Longchamp A, Berard X, Mazzolai L, Corpataux J M, Deglise S. Eur. J. Vasc. Endovasc. Surg. 51: 733-742, 2016] and Kim S Y et al. [Kim S Y, Park K H, Gul R, Jang K Y, Kim U H. Am. J. Physiol. Renal Physiol. 296: F291-F297, 2009]
Specifically, 0.2 mL of 8 mg of L-NAME (Nw-nitro-L-arginine-methyl-ester, Sigma-Aldrich, USA) dissolved in 1 mL of saline was orally administered to C57BL/6J mouse every day. On days 7 and 14 of the oral administration, blood pressure was measured at the tail of the mouse. […] On day 6 after the DCQA treatment, the mouse was put in a metabolic cage and urine was collected for 24 hours.
After measuring the blood pressure of the mouse (FIG. 11A), the mouse was sacrificed and serum was obtained.
Creatinine clearance rate was calculated by measuring the creatinine levels in urine and serum using a creatinine assay kit (Bioassay Systems, USA) (FIG. 11B).

**Q.** Which results are given for `O=C(/C=C/c1ccc(O)c(O)c1)OC1[C@H](O)CC(OC(=O)/C=C/c2ccc(O)c(O)c2)(C(=O)O)C[C@H]1O` (some centres unmarked) [DCQA, 1,4-dicaffeoylquinic acid]?
**A.** blood glucose ([1]; FIG. 6A): did not show decreased in blood glucose; kidney to body weight ([1]; FIG. 6B): significant decrease in kidney to body weight; creatinine clearance rate ([1]; FIG. 6C): significant increase in creatinine clearance rate; urine albumin level ([1]; FIG. 6D): significant decrease in the urine albumin level; cADPR concentration in kidney tissue ([2]; FIG. 7B): decreased the cADPR concentration increased by STZ to the level of the control group; ADP-ribosyl cyclase activity in kidney tissue ([2]; NGD substrate, FIG. 7A): decreased the ADP-ribosyl cyclase activity increased by STZ to the level of the control group; blood pressure ([3]; FIG. 11A): no effect of lowering blood pressure; creatinine clearance rate ([3]; FIG. 11B): increase in creatinine clearance rate
